Data: the supplement of paper PMC10307832

Assays:
Assay in all cases: relative viability (nuclei count vs DMSO), 5 days (fraction); higher = more cells survive
[1] = tested on: NCI-H2347
Method in brief: (§1)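 Lung cancer cell lines, seeded in 1536-well plates, were treated the following day by pin tool with a single drug or with five library-drug doses (not always all listed) in √10 steps on top of a fixed anchor-drug dose. Cells were fixed and nuclei stained in one step after 5 days, and nuclei were counted. Relative viability is the nuclei count for treated wells divided by that for vehicle wells, reported as medians of duplicate plates.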

[2] = tested on: NCI-H1915
Method in brief: as §1

[3] = tested on: RERF-LC-KJ
Method in brief: as §1

[4] = tested on: LXF-289
Method in brief: as §1

[5] = tested on: NCI-H1755
Method in brief: as §1

[6] = tested on: SW 1573
Method in brief: as §1

[7] = tested on: LC-2-ad
Method in brief: as §1

[8] = tested on: NCI-H1975
Method in brief: as §1

[9] = tested on: HOP-62
Method in brief: as §1

[10] = tested on: NCI-H2228
Method in brief: as §1

[11] = tested on: SK-LU-1
Method in brief: as §1

[12] = tested on: HCC-15
Method in brief: as §1

[13] = tested on: A-427
Method in brief: as §1

[14] = tested on: HCC-78
Method in brief: as §1

[15] = tested on: NCI-H2342
Method in brief: as §1

[16] = tested on: NCI-H1734
Method in brief: as §1

[17] = tested on: NCI-H647
Method in brief: as §1

[18] = tested on: NCI-H358
Method in brief: as §1

[19] = tested on: PC-3 [JPC-3]
Method in brief: as §1

[20] = tested on: NCI-H2126
Method in brief: as §1

Question: With CCN(CC)CCCCNc1ncc2cc(-c3cc(OC)cc(OC)c3)c(NC(=O)NC(C)(C)C)nc2n1 + COc1cc2c(Oc3ccc(NC(=O)C4(C(=O)Nc5ccc(F)cc5)CC4)cc3F)ccnc2cc1OCCCN1CCOCC1 [Foretinib] (partner 0.25 µM) as the molecule, how does the relative viability ([1]; first compound 0.01 µM) read?
Answer: 0.744

Question: What about the relative viability ([1]; first compound 0.03162 µM) of the same molecule?
Answer: 0.85

Question: What about the relative viability ([1]; first compound 0.1 µM) of the same molecule?
Answer: 1.4

Question: What about the relative viability ([1]; first compound 0.3162 µM) of the same molecule?
Answer: 1.12

Question: And the relative viability ([1]; first compound 1 µM)?
Answer: 0.766

Question: What about the relative viability ([2]; first compound 0.01 µM) of the same molecule?
Answer: 1.15

Question: What about the relative viability ([2]; first compound 0.03162 µM) of the same molecule?
Answer: 1.24

Question: What about the relative viability ([2]; first compound 0.1 µM) of the same molecule?
Answer: 1.13

Question: And the relative viability ([2]; first compound 0.3162 µM)?
Answer: 1.27

Question: What about the relative viability ([2]; first compound 1 µM) of the same molecule?
Answer: 1.15

Question: And the relative viability ([3]; first compound 0.01 µM)?
Answer: 0.893

Question: And the relative viability ([3]; first compound 0.03162 µM)?
Answer: 0.901

Question: And the relative viability ([3]; first compound 0.1 µM)?
Answer: 0.871

Question: What about the relative viability ([3]; first compound 0.3162 µM) of the same molecule?
Answer: 0.872

Question: And the relative viability ([3]; first compound 1 µM)?
Answer: 0.941

Question: And the relative viability ([4]; first compound 0.01 µM)?
Answer: 0.979

Question: And the relative viability ([4]; first compound 0.03162 µM)?
Answer: 0.989

Question: What about the relative viability ([4]; first compound 0.1 µM) of the same molecule?
Answer: 1.02

Question: What about the relative viability ([4]; first compound 0.3162 µM) of the same molecule?
Answer: 0.975

Question: And the relative viability ([4]; first compound 1 µM)?
Answer: 0.851

Question: And the relative viability ([5]; first compound 0.01 µM)?
Answer: 0.986

Question: What about the relative viability ([5]; first compound 0.03162 µM) of the same molecule?
Answer: 0.92

Question: And the relative viability ([5]; first compound 0.1 µM)?
Answer: 0.969

Question: What about the relative viability ([5]; first compound 0.3162 µM) of the same molecule?
Answer: 0.936

Question: And the relative viability ([5]; first compound 1 µM)?
Answer: 0.882

Question: What about the relative viability ([6]; first compound 0.01 µM) of the same molecule?
Answer: 0.928

Question: And the relative viability ([6]; first compound 0.03162 µM)?
Answer: 0.878

Question: What about the relative viability ([6]; first compound 0.1 µM) of the same molecule?
Answer: 0.924

Question: What about the relative viability ([6]; first compound 0.3162 µM) of the same molecule?
Answer: 0.896

Question: And the relative viability ([6]; first compound 1 µM)?
Answer: 0.814

Question: What about the relative viability ([7]; first compound 0.01 µM) of the same molecule?
Answer: 1.09

Question: And the relative viability ([7]; first compound 0.03162 µM)?
Answer: 0.998

Question: What about the relative viability ([7]; first compound 0.1 µM) of the same molecule?
Answer: 1.11

Question: And the relative viability ([7]; first compound 0.3162 µM)?
Answer: 0.951

Question: What about the relative viability ([7]; first compound 1 µM) of the same molecule?
Answer: 0.966

Question: What about the relative viability ([8]; first compound 0.01 µM) of the same molecule?
Answer: 0.931

Question: And the relative viability ([8]; first compound 0.03162 µM)?
Answer: 0.956

Question: What about the relative viability ([8]; first compound 0.1 µM) of the same molecule?
Answer: 1.29

Question: What about the relative viability ([8]; first compound 0.3162 µM) of the same molecule?
Answer: 1.04

Question: And the relative viability ([8]; first compound 1 µM)?
Answer: 0.867

Question: And the relative viability ([9]; first compound 0.01 µM)?
Answer: 1.15

Question: And the relative viability ([9]; first compound 0.03162 µM)?
Answer: 1.13

Question: What about the relative viability ([9]; first compound 0.1 µM) of the same molecule?
Answer: 1.24

Question: And the relative viability ([9]; first compound 0.3162 µM)?
Answer: 1.16

Question: What about the relative viability ([9]; first compound 1 µM) of the same molecule?
Answer: 1.12

Question: And the relative viability ([10]; first compound 0.01 µM)?
Answer: 1.03

Question: What about the relative viability ([10]; first compound 0.03162 µM) of the same molecule?
Answer: 1.01

Question: And the relative viability ([10]; first compound 0.1 µM)?
Answer: 1.35

Question: And the relative viability ([10]; first compound 0.3162 µM)?
Answer: 0.998

Question: And the relative viability ([10]; first compound 1 µM)?
Answer: 0.635

Question: What about the relative viability ([11]; first compound 0.01 µM) of the same molecule?
Answer: 0.942

Question: What about the relative viability ([11]; first compound 0.03162 µM) of the same molecule?
Answer: 0.78

Question: And the relative viability ([11]; first compound 0.1 µM)?
Answer: 1.12

Question: And the relative viability ([11]; first compound 0.3162 µM)?
Answer: 1.07

Question: And the relative viability ([11]; first compound 1 µM)?
Answer: 0.662

Question: And the relative viability ([12]; first compound 0.01 µM)?
Answer: 1.04

Question: And the relative viability ([12]; first compound 0.03162 µM)?
Answer: 1.19

Question: And the relative viability ([12]; first compound 0.1 µM)?
Answer: 1.03

Question: And the relative viability ([12]; first compound 0.3162 µM)?
Answer: 1.1

Question: And the relative viability ([12]; first compound 1 µM)?
Answer: 0.989

Question: And the relative viability ([13]; first compound 0.01 µM)?
Answer: 1.18

Question: And the relative viability ([13]; first compound 0.03162 µM)?
Answer: 1.11

Question: And the relative viability ([13]; first compound 0.1 µM)?
Answer: 1.18

Question: What about the relative viability ([13]; first compound 0.3162 µM) of the same molecule?
Answer: 1.1

Question: And the relative viability ([13]; first compound 1 µM)?
Answer: 0.99

Question: What about the relative viability ([14]; first compound 0.01 µM) of the same molecule?
Answer: 0.583

Question: And the relative viability ([14]; first compound 0.03162 µM)?
Answer: 0.53

Question: And the relative viability ([14]; first compound 0.1 µM)?
Answer: 0.586

Question: And the relative viability ([14]; first compound 0.3162 µM)?
Answer: 0.55

Question: What about the relative viability ([14]; first compound 1 µM) of the same molecule?
Answer: 0.56

Question: What about the relative viability ([15]; first compound 0.01 µM) of the same molecule?
Answer: 1.19

Question: And the relative viability ([15]; first compound 0.03162 µM)?
Answer: 1.23

Question: What about the relative viability ([15]; first compound 0.1 µM) of the same molecule?
Answer: 1.19

Question: And the relative viability ([15]; first compound 0.3162 µM)?
Answer: 1.03

Question: What about the relative viability ([15]; first compound 1 µM) of the same molecule?
Answer: 1

Question: And the relative viability ([16]; first compound 0.01 µM)?
Answer: 0.863

Question: What about the relative viability ([16]; first compound 0.03162 µM) of the same molecule?
Answer: 0.828

Question: And the relative viability ([16]; first compound 0.1 µM)?
Answer: 0.83

Question: What about the relative viability ([16]; first compound 0.3162 µM) of the same molecule?
Answer: 0.943

Question: And the relative viability ([16]; first compound 1 µM)?
Answer: 0.694

Question: What about the relative viability ([17]; first compound 0.01 µM) of the same molecule?
Answer: 1.15

Question: And the relative viability ([17]; first compound 0.03162 µM)?
Answer: 1.39

Question: And the relative viability ([17]; first compound 0.1 µM)?
Answer: 1.43

Question: What about the relative viability ([17]; first compound 0.3162 µM) of the same molecule?
Answer: 1.55

Question: What about the relative viability ([17]; first compound 1 µM) of the same molecule?
Answer: 1.08

Question: And the relative viability ([18]; first compound 0.01 µM)?
Answer: 0.71

Question: And the relative viability ([18]; first compound 0.03162 µM)?
Answer: 0.638

Question: And the relative viability ([18]; first compound 0.1 µM)?
Answer: 0.679

Question: And the relative viability ([18]; first compound 0.3162 µM)?
Answer: 0.815

Question: And the relative viability ([18]; first compound 1 µM)?
Answer: 0.625

Question: And the relative viability ([19]; first compound 0.01 µM)?
Answer: 1.08

Question: What about the relative viability ([19]; first compound 0.03162 µM) of the same molecule?
Answer: 1.07

Question: And the relative viability ([19]; first compound 0.1 µM)?
Answer: 1.13

Question: What about the relative viability ([19]; first compound 0.3162 µM) of the same molecule?
Answer: 1.16

Question: And the relative viability ([19]; first compound 1 µM)?
Answer: 1.04

Question: And the relative viability ([20]; first compound 0.01 µM)?
Answer: 1.37

Question: And the relative viability ([20]; first compound 0.03162 µM)?
Answer: 1.3

Question: And the relative viability ([20]; first compound 0.1 µM)?
Answer: 1.14

Question: What about the relative viability ([20]; first compound 0.3162 µM) of the same molecule?
Answer: 1.22

Question: And the relative viability ([20]; first compound 1 µM)?
Answer: 1.11
